Where two headings read alike, the source gives them in different places.
Molecular target: T1, Human-Dab2-DH (Homo sapiens, UniProt P98082)
T1 construct: fused on or other part: N-terminal 10xHis tag with a 3C protease site, cleaved off unless otherwise indicated
T1 sequence (P98082 33-178 limits assumed): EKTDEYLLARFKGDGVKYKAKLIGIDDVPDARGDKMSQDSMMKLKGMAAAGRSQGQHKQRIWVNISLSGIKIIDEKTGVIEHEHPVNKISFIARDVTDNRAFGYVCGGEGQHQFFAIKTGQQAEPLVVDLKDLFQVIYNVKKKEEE
Test: Dab2 FP competition assay via HTS
Type: binding
Protocol: CALP and/or Dab2 inhibition assays were performed in biochemical “mix-and-measure” format in order to evaluate the effects on activation and inhibition of CALP and/or Dab2 by the compounds of the disclosure. Brief assay procedure is provided below. Unless otherwise specified, all of the compounds were obtained from commercial sources.
Dab-2 inhibitors were also identified by FP competition assays via HTS. Human-Dab2-DH, residues 31-191 (Uniprot: P98082), and trDab2-DH (residues 33-178) was subcloned into the pET16b vector via PCR utilizing the restriction enzyme sites of Xhol and BamHI. The construct was designed with a 3C protease cleavage site directly upstream and in-frame with the protein coding sequence. DNA was sequence verified. (0.1 mM) IPTG was used to induce protein expression in E. coli BL21(DE3)RIL cells, after reaching an O.D. of […]. […] Followed by 3C cleavage of the 10×His tag (unless otherwise indicated), and a second nickel affinity column to remove the 3C protease and excess tag. Dab2-DH was dialyzed into FP storage buffer (25 mM Tris pH 8.0, 150 mM NaCl, 0.1 mM TCEP, and 0.02% sodium azide). Fluorescent reporter peptides, TIVR*STA02 (TMR*-[…]) and TMR*STA03 (TMR*-[…]), were purchased commercially with the following sequence where TMR* denotes a N-terminal tetramethylrhodamine group coupled via an aminohexanoic acid linker. An unlabled positive control peptide STA02 ([…]) was also purchased commercially. Inhibitors of Dab2-DH were identified from a variety of sources with various protocols outlined below.
For screens conducted at the Novartis Institutes for BioMedical Research FAST Lab, single-dose HTS assays were performed with libraries comprising ˜52,000 compounds at 20 μM doses. Experiments were conducted as described for screens at the University of Pittsburgh Lab and Drug Discovery Institute, except that Dab2-DH, not trDab2-DH, was used as the protein source.
For screens conducted at the Broad Institute, compound transfers were done using a 384-well pin tool equipped with 100 nL hydrophobic surface coated pins. 100 nL of DMSO (negative control), STA02 (positive control), or library compounds were dispensed into 20 μL of protein (200 nM) and reporter (F*-STA02, 30 nM) mixture with 0.1 mg/ml mouse IgG and 0.5 mM Thesit. Final concentrations in the mixture were DMSO ([…]), STA02 (20 μM), and compounds (18 μM). Plates were incubated for 35-45 minutes before measuring polarization. Compounds were tested in duplicates on two separate plates. Positive and negative controls were included in each individual plate.
For experiments conducted at the University of Pittsburgh Lab and Drug Discovery Institute, single-dose HTS assays were performed with a library containing ˜220,000 compounds. On the day of screening, a master mix of equal parts trDab2-DH (900 nM) and TMP-STA03 (90 nM) was prepared. Compound plates containing assay ready 2 μL aliquots of a 1 mM stock solution in DMSO were thawed, reconstituted in FP buffer to a concentration of 30 μM in 3% DMSO, and five μL transferred to low volume assay plates using a Perkin Elmer MDT. Ten μL of master mix were added by a Microflo bulk liquid dispenser (Biotek, Winooski, VT) and processed as described in the general protocol above. Each plate contained 32 wells of positive (Dab2-DH+probe+DMSO) and negative (Dab2-DH+probe +10 μM STA03) controls. Plates were read at 1.5-h and 4-h on the Envision multilabel reader.

[1] = read-out: Inhibitory activity Dab2 IC50

SMILES | IC50 [1] [µM] | other results
CC(C)c1cc2c(c(O)c1O)[C@@]13CCCC(C)(C)[C@@H]1C[C@@H]2OC3=O [Example 31, (4aR,9S,10aS)-5,6-dihydroxy-7-isopropyl-1,1-dimethyl-1,3,4,9,10,10a-hexahydro-2H-9,4a-(epoxymethano)phenanthren-12-one] | 5.37 | 
O=C(/C=C/c1ccc(O)c(O)c1)OC(Cc1ccc(O)c(O)c1)C(=O)O (stereo not drawn) [Example 25, (E)-3-(3,4-dihydroxyphenyl)-2-((3-(3,4-dihydroxyphenyl)acryloyl)oxy)propanoic acid] | 3.22 | 
CC[N+](C)(CC)CCC[n+]1c(-c2ccccc2)c2cc(N)ccc2c2ccc(N)cc21 [Example 29, 3,8-diamino-5-(3-(diethyl(methyl)ammonio)propyl)-6-phenylphenanthridin-5-ium bromide] | 9.41 | 
CC1OC2CC(=O)OC2C2=C1C(=O)c1c(O)cccc1C2=O (stereo not drawn) [Example 33, 7-hydroxy-5-methyl-3,3a,5,11b-tetrahydro-2H-benzo[g]furo[3,2-c]isochromene-2,6,11-trione] | 8.02 | 
CC(=O)C1=C(O)[C@@]2(O)C(=O)c3c(c(C)c4ccc(C)c(O)c4c3O)C[C@H]2[C@@H](N)C1=O [Example 18, (1R,4aR,12aS)-3-acetyl-1-amino-4,4a,6,7-tetrahydroxy-8,11-dimethyl-12,12a-dihydrotetracene-2,5(1H,4aH)-dione] | 8.86 | 
CN(C)[C@@H]1C(=O)C(C(N)=O)=C(O)[C@@]2(O)C(=O)C3=C(O)c4c(O)cccc4[C@@](C)(O)[C@H]3[C@H](O)[C@@H]12 [Example 30, (4S,4aR,5S,5aR,6S,12aR)-4-(dimethylamino)-1,5,6,10,11,12a-hexahydroxy-6-methyl-3,12-dioxo-3,4,4a,5,5a,6,12,12a-octahydrotetracene-2-carboxamide] |  | IC50: 6.02 µM
COc1c(O)c2c(=O)cc(OC)c3c4c(OC)cc(=O)c5c(O)c(OC)c(CC(C)OC(=O)c6ccccc6)c(c(c1CC(C)OC(=O)Oc1ccc(O)cc1)c23)c54 (stereo not drawn) [Example 20, 1-(3,10-dihydroxy-12-(2-(((4-hydroxyphenoxy)carbonyl)oxy)propyl)-2,6,7,11-tetramethoxy-4,9-dioxo-4,9-dihydroperylen-1-yl)propan-2-yl benzoate] |  | IC50: 0.51 µM
CC1(C)Cc2ccccc2-c2n[nH]c(=S)n21 [Example 13, 5,5-dimethyl-5,6-dihydro-[1,2,4]triazolo[3,4-a]isoquinoline-3(2H)-thione] |  | Inhibitory activity Dab2 at Cmax (at Cmax, cells printed with %): ~−95%
COC1=CC(=O)C(O)=C/C1=C\C=C\c1ccccc1 [Example 19, (E)-2-hydroxy-5-methoxy-4-((E)-3-phenylallylidene)cyclohexa-2,5-dien-1-one] | 7.73 | 
CC1CCCCCCCCCC(OC(=O)CCC(=O)O)C(=O)/C=C/C(=O)O1 (stereo not drawn) [Example 27, (E)-4-((16-methyl-2,5-dioxooxacyclohexadec-3-en-6-yl)oxy)-4-oxobutanoic acid] | 3.85 | 
C=C1C(=O)OC2C(=O)OC(CCCCCCCCCC)C12 (stereo not drawn) [Example 32, 4-decyl-3-methylenedihydrofuro[3,4-b]furan-2,6(3H,4H)-dione] | 5.22 | 
O=C1C=C(O)c2c(O)cc(O)cc2C1=O [Example 17, 4,5,7-trihydroxynaphthalene-1,2-dione] | 8.29 | 
CC1=C(O)C(=O)C=C2C1=CC=C1[C@@]2(C)CC[C@@]2(C)[C@@H]3C[C@](C)(C(=O)O)CC[C@]3(C)CC[C@]12C [Example 24, (2R,4aS,6aS,12bR,14aS,14bR)-10-hydroxy-2,4a,6a,9,12b,14a-hexamethyl-11-oxo-1,2,3,4,4a,5,6,6a,11,12b,13,14,14a,14b-tetradecahydropicene-2-carboxylic acid] | 0.66 | 
CC(C)c1cc2c(c(O)c1O)C13CCCC(C)(C)C1CC2OC3=O (stereo not drawn) [Example 16, 5,6-dihydroxy-7-isopropyl-1,1-dimethyl-1,3,4,9,10,10a-hexahydro-2H-9,4a-(epoxymethano)phenanthren-12-one] | 6.89 | 

More lines, in order of falling IC50 [1], values ahead:

IC50 [1] [µM] | SMILES | other results
2.99 | O=C1c2c(O)c(Cl)cc3c2[C@@]2(Oc4ccc(O)c5c4[C@]3(O2)[C@@H]2O[C@@H]2C5=O)[C@@H]2O[C@H]12 [Example 34, (1aR,1bS,5aS,6aR,6bS,11aS)-3-chloro-4,10-dihydroxy-1a,5a,6a,11a-tetrahydro-5H,11H-1b,6b-epoxyoxireno[2′,3′:2,3]naphtho[1,8-bc]oxireno[2′,3′:2,3]naphtho[1,8-ef]oxepine-5,11-dione] | 
1.17 | COc1c(O)cc(C(C)C(C)=O)c(O)c1OC (stereo not drawn) [Example 35, 3-(2,5-dihydroxy-3,4-dimethoxyphenyl)butan-2-one] | 
0.94 | COc1ccc(C(=O)C(=O)Nc2ccccc2)c(O)c1 [Example 21, 2-(2-hydroxy-4-methoxyphenyl)-2-oxo-N-phenylacetamide] | 
0.89 | Cc1cc(O)c(Oc2cc(C)cc(O)c2O)c(O)c1 [Example 23, 3-(2,6-dihydroxy-4-methylphenoxy)-5-methylbenzene-1,2-diol] | 
0.77 | Cc1cc(O)c(O)c(Oc2cc(C)cc(O)c2O)c1 [Example 22, 6,6′-oxybis(4-methylbenzene-1,2-diol)] | 
0.69 | Cc1occ2c1C(=O)c1c(O)ccc(O)c1C2 [Example 26, 5,8-dihydroxy-3-methylnaphtho[2,3-c]furan-4(9H)-one] | 
0.39 | COC(=O)C1=COC(OC2OC(CO)C(O)C(O)C2O)C2C(CO)=CCC12O (stereo not drawn) [Example 28, methyl 4a-hydroxy-7-(hydroxymethyl)-1-((3,4,5-trihydroxy-6-(hydroxymethyl)tetrahydro-2H-pyran-2-yl)oxy)-1,4a,5,7a-tetrahydrocyclopenta[c]pyran-4-carboxylate] | 
